The results in this text go back to patent US8097733B2, “Pyrazole derivatives as 5-LO-inhibitors” (Pfizer Inc., priority 2007, dated 2012).

One experiment deals with T1, recombinant human 5-LOX (Homo sapiens, UniProt P09917).
T1 sequence (P09917 1-674): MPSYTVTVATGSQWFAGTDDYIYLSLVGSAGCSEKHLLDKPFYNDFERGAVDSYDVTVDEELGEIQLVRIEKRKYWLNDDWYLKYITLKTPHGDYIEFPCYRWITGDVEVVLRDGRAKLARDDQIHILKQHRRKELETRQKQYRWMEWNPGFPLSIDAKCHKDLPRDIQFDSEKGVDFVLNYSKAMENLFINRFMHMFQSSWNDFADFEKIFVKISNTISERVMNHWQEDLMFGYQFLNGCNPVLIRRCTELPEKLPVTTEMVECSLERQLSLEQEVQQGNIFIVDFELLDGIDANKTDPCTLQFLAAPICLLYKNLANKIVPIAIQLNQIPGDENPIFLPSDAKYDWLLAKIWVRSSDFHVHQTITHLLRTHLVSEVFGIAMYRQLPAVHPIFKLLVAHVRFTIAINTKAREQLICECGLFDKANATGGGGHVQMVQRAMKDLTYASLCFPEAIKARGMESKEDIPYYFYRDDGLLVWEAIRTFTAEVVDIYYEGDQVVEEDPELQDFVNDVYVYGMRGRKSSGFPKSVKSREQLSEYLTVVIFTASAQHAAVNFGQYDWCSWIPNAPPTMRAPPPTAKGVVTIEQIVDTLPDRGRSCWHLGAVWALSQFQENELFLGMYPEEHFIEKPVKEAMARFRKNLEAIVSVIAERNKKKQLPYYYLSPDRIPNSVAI
The experiment in a line: Fluorescence Intensity 5-LOX Enzyme Assay. It is filed as biochemical. As to conditions: crude lysate of recombinant human 5-LOX; highest inhibitor concentration tested typically 25 μM. In a few lines: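 Crude lysate enzyme with H2DCFDA 10 μM (5 min dye pre-incubation), inhibitor pre-incubated 10 min; reaction started with 3 μM arachidonic acid plus 10 μM ATP in Tris pH 7.5, CaCl2, EDTA, 20 min at room temperature, acetonitrile stop. Fluorescein fluorescence; 7-point 4-parameter IC50, top 25 μM, 2.5% DMSO.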

Experiment [1] has as its system human whole blood (leukotriene and prostaglandin levels). Description: Eicosanoid production from human whole blood. It is filed as cell-based. As to conditions: human whole blood stimulated with calcium ionophore A23187 and arachidonic acid; ELISA. Summed up: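 Pooled heparinized whole blood from healthy or asthmatic donors was preincubated with compound for 10 min at room temperature, with 2.5% DMSO final. It was stimulated with calcium ionophore A23187 plus arachidonic acid (30 μM) in 60% ethanol for 15 min at 37 °C. Plasma leukotrienes and prostaglandins were measured by ELISA.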

Experiment [2] deals with eicosanoid production in the rat air pouch. The experiment in a line: Carrageenan-induced eicosanoid production in the rat air pouch. It is filed as in vivo. Particulars: po, male Lewis rats, 3 mpk by gavage 1 hour prior to carrageenan. The protocol: Carrageenan-Induced Eicosanoid Production in the Rat Air Pouch:
Male Lewis rats (175-200 g), Charles River Laboratories, Wilmington, Mass.) were used in the study. Air pouches were produced by subcutaneous injection of 20 ml of sterile air into the intrascapular area of the back. Pouches were allowed to develop for 1 day. Animals (6 per group) were fasted with free access to water for 16 to 24 hours prior to drug administration. Drugs or vehicle were administered by gavage 1 hour prior to injection of 2 ml of a 1% suspension of carrageenan (FMC BioPolymer, Philadelphia, Pa., Cat. # GP209-NF) dissolved in saline into the pouch. At 3 hours post-carrageenan injection, 1 ml of 50 μg/ml calcium ionophore in saline (A23187, Sigma Chemical Co, St. Louis, M, Cat. #C-7522) was injected into the pouch and the pouch fluid collected 10 minutes later by lavage. The fluid was centrifuged at 3500 rpm for 10 minutes at 4° C., and the supernatants were collected for analysis. Leukotriene and prostaglandin levels were quantitated by ELISA according to the manufacturer's directions (Cayman Chemical Company, Ann Arbor, Mi).

Molecules are shown by their SMILES.

Consider `C[C@H]1C[C@@](C(N)=O)(c2ccc(F)c(Sc3ccc(-c4ccnn4C)cc3)c2)CCO1` [Example 23, (2S,4R)-4-(4-fluoro-3-(4-(1-methyl-1H-pyrazol-5-yl)phenylthio)phenyl)-2-methyl-tetrahydro-2H-pyran-4-carboxamide], for which the IC50 was found to be 39.8 nM at recombinant human 5-LOX and 314 nM in experiment [1]. This molecule also registered an inhibition at 3 mg/kg in experiment [2] of 76%.
Turning to `C[C@H]1C[C@@](C#N)(c2ccc(F)c(Sc3ccc(-c4ccnn4C)cc3)c2)CCO1` [Example 24, (2S,4R)-4-(4-fluoro-4-(4-(1-methyl-1H-pyrazol-5-yl)phenylthio)phenyl)-2-methyl-tetrahydro-2H-pyran-4-carbonitrile], the figures for the IC50 (on recombinant human 5-LOX; in experiment [1]) were 692 nM and 150 nM, respectively. Besides, 3 mg/kg produced 32% inhibition in experiment [2].
Consider `C[C@H]1C[C@@](C(N)=O)(c2cc(F)cc(Sc3ccc(-c4ccnn4C)cc3)c2)CCO1` [Example 27, (2S,4R)-4-(3-fluoro-5-(4-(1-methyl-1H-pyrazol-5-yl)phenylthio)phenyl)-2-methyl-tetrahydro-2H-pyran-4-carboxamide], for which the IC50 on recombinant human 5-LOX was found to be 19.8 nM; in experiment [1] it was 138 nM. In addition, in experiment [2], at 3 mg/kg the inhibition was 100%.
Regarding `C[C@H]1C[C@@](C(N)=O)(c2ccc(F)c(Sc3ccc(-c4ccnn4C)cc3)c2F)CCO1` [Example 28, (2S,4R)-4-(2,4-difluoro-3-(4-(1-methyl-1H-pyrazol-5-yl)phenylthio)phenyl)-2-methyl-tetrahydro-2H-pyran-4-carboxamide], the IC50 on recombinant human 5-LOX came to 21 nM; in experiment [1] it was 227 nM. The same molecule displayed an inhibition at 3 mg/kg in experiment [2] of 100%.
For the molecule `C[C@H]1C[C@@](C(N)=O)(c2cccc(Sc3ccc(-c4ccnn4C)cc3)c2F)CCO1` [Example 29, (2S,4R)-4-(2-fluoro-3-(4-(1-methyl-1H-pyrazol-5-yl)phenylthio)phenyl)-2-methyl-tetrahydro-2H-pyran-4-carboxamide], the IC50 on recombinant human 5-LOX stood at 14.9 nM; in experiment [1] it was 265 nM. Further, in experiment [2], the inhibition at 3 mg/kg turned out to be 100%.
Consider `Cn1nccc1Cc1ccc(Sc2cccc(C3(C(N)=O)CCOCC3)c2)cc1F` [Example 33, 4-{3-[3-Fluoro-4-(2-methyl-2H-pyrazol-3-ylmethyl)phenylsulfanyl]-phenyl}-tetrahydro-pyran-4-carboxylic acid amide], for which the IC50 at recombinant human 5-LOX was found to be 110 nM; in experiment [1] it was 492 nM. The molecule also had an inhibition at 3 mg/kg in experiment [2] of 76%.
Consider `Cn1nccc1C(=O)c1ccc(Sc2cccc(C3(C(N)=O)CCOCC3)c2)cc1` [Example 34, 4-[3-({4-[(1-methyl-1H-pyrazol-5-yl)carbonyl]phenyl}thio)phenyl]tetrahydro-2H-pyran-4-carboxamide], for which the IC50 on recombinant human 5-LOX worked out at 40.2 nM; in experiment [1] it was 549 nM. The molecule also displayed an inhibition at 3 mg/kg in experiment [2] of 99.5%.
For `C[C@H]1C[C@@](C(N)=O)(c2cccc(Sc3ccc(C(=O)c4ccnn4C)cc3)c2)CCO1` [Example 39, (2S,4R)-2-methyl-4-(3-(4-(1-methyl-1H-pyrazole-5-carbonyl)phenylthio)phenyl)-tetrahydro-2H-pyran-4-carboxamide] the same measures were 23.8 nM, 407 nM and 66%.
Regarding `C[C@H]1C[C@@](C(N)=O)(c2cccc(Sc3ccc(C(=O)c4ccnn4C)cc3)c2F)CCO1` [Example 40], the figures for the IC50 (on recombinant human 5-LOX; in experiment [1]) were 21.9 nM and 407 nM, respectively. In experiment [2], the inhibition at 3 mg/kg stood at 96%.
Take `Cn1nccc1Oc1ncc(Sc2cccc(C3(C(N)=O)CCOCC3)c2)cc1Cl` [Example 41, 4-(3-(5-chloro-6-(1-methyl-1H-pyrazol-5-yloxy)pyridin-3-ylthio)phenyl)-tetrahydro-2H-pyran-4-carboxamide]: the results for the IC50 (at recombinant human 5-LOX; in experiment [1]) were 277 nM and 405 nM, respectively. In experiment [2], this molecule displayed an inhibition at 3 mg/kg of 98%.
Turning to `Cn1nccc1-c1ccc(Sc2cccc(C3(C#N)CCOCC3)c2)cc1F` [Example 46, 4-(3-{[3-fluoro-4-(1-methyl-1H-pyrazol-5-yl)phenyl]thio}phenyl)tetrahydro-2H-pyran-4-carbonitrile], the IC50 at recombinant human 5-LOX came to 4130 nM; in experiment [1] it was 539 nM. This molecule returned an inhibition at 3 mg/kg in experiment [2] of 0%.
In the case of `Cn1nccc1-c1ccc(Sc2cccc(C3(C#N)CCOCC3)c2F)cc1` [Example 48, 4-(2-fluoro-3-{[4-(1-methyl-1H-pyrazol-6-yl)phenyl]thio}phenyl)tetrahydro-2H-pyran-4-carbonitrile], the IC50 came to 387 nM on recombinant human 5-LOX and 124 nM in experiment [1]. The molecule also returned an inhibition at 3 mg/kg in experiment [2] of 38%.
`Cn1nccc1Oc1ccc(Sc2cccc(C3(C(N)=O)CCOCC3)c2)cc1C#N` [Example 51, 4-[3-({3-cyano-4-[(1-methyl-1H-pyrazol-5-yl)oxy]phenyl}thio)phenyl]tetrahydro-2H-pyran-4-carboxamide]: the IC50 on recombinant human 5-LOX was found to be 554 nM; in experiment [1] it was 203 nM. Further, the inhibition at 3 mg/kg in experiment [2] amounted to 77%.
For `C[C@H]1C[C@@](C(N)=O)(c2cccc(Sc3cnc(Oc4ccnn4C)c(Cl)c3)c2F)CCO1` [Example 52, (2S,4R)-4-(3-(5-chloro-6-(1-methyl-1H-pyrazol-5-yloxy)pyridin-3-ylthio)-2-fluorophenyl)-2-methyl-tetrahydro-2H-pyran-4-carboxamide], the IC50 came to 20.7 nM on recombinant human 5-LOX and 272 nM in experiment [1]. The same molecule displayed an inhibition at 3 mg/kg in experiment [2] of 100%.
As to `C[C@H]1C[C@@](C#N)(c2cccc(Sc3ccc(C(=O)c4ccnn4C)cc3)c2F)CCO1` [Example 53, (2S,4R)+(2-fluoro-3-(4-(1-methyl-1H-pyrazole-5-carbonyl)phenylthio)phenyl)-2-methyl-tetrahydro-2H-pyran-4-carbonitrile], the values for the IC50 (on recombinant human 5-LOX; in experiment [1]) were 65.7 nM and 350 nM, respectively. Also, the inhibition at 3 mg/kg in experiment [2] came out at 94%.
Consider `CNC(=O)C1(c2cccc(Sc3ccc(-c4ccnn4C)cc3)c2Cl)CCOCC1` [Example 55, 4-(2-chloro-3-{[4-(1-methyl-1H-pyrazol-5-yl)phenyl]thio}phenyl)-N-methyltetrahydro-2H-pyran-4-carboxamide], for which the IC50 at recombinant human 5-LOX is 357 nM; in experiment [1] it was 1240 nM. Besides, the inhibition at 3 mg/kg in experiment [2] was determined as 64%.
With `Cn1ncc(Cl)c1-c1ccc(Sc2cccc(C3(C(N)=O)CCOCC3)c2)cc1F` [Example 56, 4-(3-{[4-(4-chloro-1-methyl-1H-pyrazol-5-yl)-3-fluorophenyl]thio}phenyl)tetrahydro-2H-pyran-4-carboxamide], the 50% inhibitory concentration (IC50) on recombinant human 5-LOX came to 43.2 nM; in experiment [1], 472 nM. In addition, at 3 mg/kg the inhibition in experiment [2] was 62%.
For the molecule `Cn1ncc(Cl)c1-c1ccc(Sc2cccc(C3(C(N)=O)CCOCC3)c2)cc1` [Example 57, 4-(3-{[4-(4-chloro-1-methyl-1H-pyrazol-5-yl)phenyl]thio}phenyl)tetrahydro-2H-pyran-4-carboxamide], the IC50 at recombinant human 5-LOX stood at 85.1 nM; in experiment [1] it was 514 nM. This molecule registered an inhibition at 3 mg/kg in experiment [2] of 62%.
For the molecule `Cn1nccc1C(=O)c1ccc(Sc2cccc(C3(C(N)=O)CCOCC3)c2)cc1F` [Example 58, 4-[3-({3-fluoro-4-[(1-methyl-1H-pyrazol-5-yl)carbonyl]phenyl}thio)phenyl]tetrahydro-2H-pyran-4-carboxamide], the values for the IC50 (on recombinant human 5-LOX; in experiment [1]) were 156 nM and 1140 nM, respectively. In experiment [2], this molecule had an inhibition at 3 mg/kg of 0%.
